Experimental data taken from patent publication US7723068B2, “Gene cluster involved in safracin biosynthesis and its uses for genetic engineering” (PharmaMar, S.A., priority 2002, dated 2010).

How the values were obtained:
HT29 [1] = details: Colon
SK-BR3 [2] = details: Breast
SK-BR3 [3] = experiment: cells; details: Homo sapiens; for GI50: SK-BR-3, read-out: GI50 SK-BR3; for CC50: SK-BR-3, read-out: LC50 SK-BR3
IGROV-ET [4] = details: Ovary
K-562 [5] = details: Leukemia
HELA [6] = experiment: cells; details: Homo sapiens; for GI50: read-out: GI50 HELA; for CC50: read-out: LC50 HELA
HELA-APL [7] = experiment: cells; details: for GI50: read-out: GI50 HELA-APL; for CC50: read-out: LC50 HELA-APL
SK-MEL-28 [8] = experiment: cells; details: Homo sapiens; for GI50: SK-MEL-28, read-out: GI50 SK-MEL-28; for CC50: SK-MEL-28, read-out: LC50 SK-MEL-28
LOVO-DOX [9] = experiment: cells; details: for GI50: read-out: GI50 LOVO-DOX; for CC50: read-out: LC50 LOVO-DOX
HT29 [10] = experiment: cells; details: Homo sapiens; for GI50: HT-29, read-out: GI50 HT29; for CC50: HT-29, read-out: LC50 HT29
[11] = Antibacterial and antitumoral activities, general statements; details: compared with safracin A / safracin B
K-562 [12] = experiment: cells; details: Homo sapiens; for GI50: K562, read-out: GI50 K-562; for CC50: K562, read-out: LC50 K-562
PANC1 [13] = details: Pancreas
LOVO [14] = experiment: cells; details: Homo sapiens; for GI50: read-out: GI50 LOVO; for CC50: read-out: LC50 LOVO
HELA-APL [15] = details: Cervix
DU-145 [16] = experiment: cells; details: Homo sapiens; for GI50: DU-145, read-out: GI50 DU-145; for CC50: DU-145, read-out: LC50 DU-145
LN-caP [17] = details: Prostate
LOVO-DOX [18] = details: Colon
DU-145 [19] = details: Prostate
PANC1 [20] = experiment: cells; details: Homo sapiens; for GI50: PANC-1, read-out: GI50 PANC1; for CC50: PANC-1, read-out: LC50 PANC1
HELA [21] = details: Cervix
Bacillus subtilis = experiment: Antimicrobial activity on solid medium, disk; type: cell-based; details: 10 μg/disk (6 mm diameter)
Description: Antimicrobial activity: On solid medium Bacillus subtilis. 10 μg/disk (6 mm diameter): 10 mm inhibition zone Spectroscopic Data: […]

A549 [22] = details: NSCL
IGROV-ET [23] = experiment: cells; details: for GI50: read-out: GI50 IGROV-ET; for CC50: read-out: LC50 IGROV-ET
IGROV [24] = details: Ovary
IGROV [25] = experiment: cells; details: for GI50: read-out: GI50 IGROV; for CC50: read-out: LC50 IGROV
SK-MEL-28 [26] = details: Melanoma
LN-caP [27] = experiment: cells; details: Homo sapiens, LNCaP; for GI50: read-out: GI50 LN-caP; for CC50: read-out: LC50 LN-caP
A549 [28] = experiment: cells; details: Homo sapiens; for GI50: A549, read-out: GI50 A549; for CC50: A549, read-out: LC50 A549
LOVO [29] = details: Colon

What does the source list for COc1c(C)cc2c(c1O)C1C3Cc4cc(C)c(OC)c(O)c4C(CNC(=O)C(C)N)N3CC(C2)N1C (stereo not shown) [Safracin P-22A]?
TGI HT29 (HT29 [1]): >19.6 µM; TGI SK-BR3 (SK-BR3 [2]): >19.6 µM; GI50 (SK-BR3 [3]): 12.7 µM; CC50 (SK-BR3 [3]): > 19.6 µM; TGI IGROV-ET (IGROV-ET [4]): >19.6 µM; TGI K-562 (K-562 [5]): 7.93 µM; GI50 (HELA [6]): 8.75 µM; CC50 (HELA [6]): > 19.6 µM; GI50 (HELA-APL [7]): 7.66 µM; CC50 (HELA-APL [7]): > 19.6 µM; GI50 (SK-MEL-28 [8]): 5.93 µM; CC50 (SK-MEL-28 [8]): > 19.6 µM; GI50 (LOVO-DOX [9]): > 19.6 µM; CC50 (LOVO-DOX [9]): > 19.6 µM; GI50 (HT29 [10]): 12.6 µM; CC50 (HT29 [10]): > 19.6 µM; antibacterial and antitumoral activities (in words) [11]: appear to loose their activity; GI50 (K-562 [12]): 3.15 µM; CC50 (K-562 [12]): 19.6 µM; TGI PANC1 (PANC1 [13]): >19.6 µM; GI50 (LOVO [14]): > 19.6 µM; CC50 (LOVO [14]): > 19.6 µM; TGI HELA-APL (HELA-APL [15]): 19.6 µM; GI50 (DU-145 [16]): > 19.6 µM; CC50 (DU-145 [16]): > 19.6 µM; TGI LN-caP (LN-caP [17]): 9.26 µM; TGI LOVO-DOX (LOVO-DOX [18]): >19.6 µM; TGI DU-145 (DU-145 [19]): >19.6 µM; GI50 (PANC1 [20]): > 19.6 µM; CC50 (PANC1 [20]): > 19.6 µM; TGI HELA (HELA [21]): >19.6 µM; Antimicrobial activity: inhibition zone (Bacillus subtilis): NO ACTIVE; TGI A549 (A549 [22]): >19.6 µM; GI50 (IGROV-ET [23]): 13 µM; CC50 (IGROV-ET [23]): > 19.6 µM; TGI IGROV (IGROV [24]): 19.6 µM; GI50 (IGROV [25]): 7.74 µM; CC50 (IGROV [25]): > 19.6 µM; TGI SK-MEL-28 (SK-MEL-28 [26]): 13.3 µM; GI50 (LN-caP [27]): 4.19 µM; CC50 (LN-caP [27]): > 19.6 µM; GI50 (A549 [28]): > 19.6 µM; CC50 (A549 [28]): > 19.6 µM; TGI LOVO (LOVO [29]): >19.6 µM

For COc1c(C)cc2c(c1O)C1C3Cc4cc(C)c(OC)c(O)c4C(CNC(=O)C(C)N)N3C(O)C(C2)N1C (stereo not shown) [Safracin P-22B], which “TGI HT29” value (HT29 [1]) is on record?
Its value is 2.75 µM.

What about the “TGI SK-BR3” value (SK-BR3 [2]) of the same molecule?
The value was 2.28 µM.

And the GI50 (SK-BR3 [3])?
Its GI50 is 0.824 µM.

And the CC50 (SK-BR3 [3])?
The CC50 was 8.85 µM.

What about the “TGI IGROV-ET” value (IGROV-ET [4]) of the same molecule?
Its value is 7.04 µM.

What about the “TGI K-562” value (K-562 [5]) of the same molecule?
The value was 0.467 µM.

And the GI50 (HELA [6])?
The GI50 was 0.761 µM.

And the CC50 (HELA [6])?
The CC50 was 7.42 µM.

And the GI50 (HELA-APL [7])?
Its GI50 is 0.465 µM.

And the CC50 (HELA-APL [7])?
Its CC50 is 1.86 µM.

What about the GI50 (SK-MEL-28 [8]) of the same molecule?
The GI50 was 0.52 µM.

What about the CC50 (SK-MEL-28 [8]) of the same molecule?
The CC50 was 2.01 µM.

What about the GI50 (LOVO-DOX [9]) of the same molecule?
Its GI50 is 6.95 µM.

What about the CC50 (LOVO-DOX [9]) of the same molecule?
Its CC50 is greater than 19 µM.

And the GI50 (HT29 [10])?
The GI50 was 1.01 µM.

What about the CC50 (HT29 [10]) of the same molecule?
Its CC50 is 18.6 µM.

And the “antibacterial and antitumoral activities (in words)” value [11]?
Its value is “appear to loose their activity”.

And the GI50 (K-562 [12])?
Its GI50 is 0.113 µM.

What about the CC50 (K-562 [12]) of the same molecule?
Its CC50 is 1.84 µM.

And the “TGI PANC1” value (PANC1 [13])?
Its value is 11.7 µM.

And the GI50 (LOVO [14])?
The GI50 was 2.54 µM.

And the CC50 (LOVO [14])?
The CC50 was 18.4 µM.

And the “TGI HELA-APL” value (HELA-APL [15])?
Its value is 0.932 µM.

And the GI50 (DU-145 [16])?
The GI50 was 4.58 µM.

What about the CC50 (DU-145 [16]) of the same molecule?
The CC50 was 16.2 µM.

What about the “TGI LN-caP” value (LN-caP [17]) of the same molecule?
The value was 0.608 µM.

And the “TGI LOVO-DOX” value (LOVO-DOX [18])?
The value was 19 µM.

And the “TGI DU-145” value (DU-145 [19])?
The value was 8.62 µM.

What about the GI50 (PANC1 [20]) of the same molecule?
The GI50 was 4.77 µM.

And the CC50 (PANC1 [20])?
The CC50 was greater than 19 µM.

And the “TGI HELA” value (HELA [21])?
The value was 1.83 µM.

What about the zone of inhibition at 10 µg/disc (Bacillus subtilis; Bacillus subtilis) of the same molecule?
Its zone of inhibition at 10 µg/disc is 10 mm.

What about the “TGI A549” value (A549 [22]) of the same molecule?
Its value is 8.83 µM.

And the GI50 (IGROV-ET [23])?
The GI50 was 3.02 µM.

What about the CC50 (IGROV-ET [23]) of the same molecule?
Its CC50 is 16.5 µM.

And the “TGI IGROV” value (IGROV [24])?
Its value is 2.3 µM.

And the GI50 (IGROV [25])?
The GI50 was 0.849 µM.

What about the CC50 (IGROV [25]) of the same molecule?
Its CC50 is 12.1 µM.

What about the “TGI SK-MEL-28” value (SK-MEL-28 [26]) of the same molecule?
Its value is 0.999 µM.

What about the GI50 (LN-caP [27]) of the same molecule?
Its GI50 is 0.308 µM.

And the CC50 (LN-caP [27])?
Its CC50 is 1.2 µM.

What about the GI50 (A549 [28]) of the same molecule?
The GI50 was 4.71 µM.

What about the CC50 (A549 [28]) of the same molecule?
The CC50 was 16.6 µM.

What about the “TGI LOVO” value (LOVO [29]) of the same molecule?
Its value is 6.84 µM.
